Data: patent publication US20250213735A1, “NEUROPEPTIDE Y1 RECEPTOR (NPY1R) TARGETED THERAPEUTICS AND USES THEREOF” (Radionetics Oncology, Inc., priority 2023, published 2025)
Numbered stars: 1 amine (or outer) side, 2 acyl side, 3 side chain; on linkers, the order of the positions; unused ones are H or OH. Square brackets hold non-standard residues; d marks the D form. Peptide text beside a SMILES is read from it. * marks the point of attachment. dArg(Nω-CONH(CH2)2NHCOEt) = CCC(=O)NCCNC(=O)/N=C(/N)NCCC[C@@H](N)C(=O)O; DOTA = O=C(O)CN1CCN(CC(=O)O)CCN(CC(=O)*)CCN(CC(=O)O)CC1; X1 = O=C([C@H](c1ccc(OCCCN[*:1])cc1)N1Cc2ccccc2C1)[*:2]; NH(2,6-F2-4-OH-benzyl) = Oc1cc(F)c(CN*)c(F)c1; Sar = CNCC(=O)O

biological target: hNPY1R (Homo sapiens (Human), UniProt P25929); experiment: NPY1R binding assay (SK-N-MC membrane, [125I]-Peptide YY competition); details: crude SK-N-MC membranes endogenously expressing NPY1R; [125I]-Peptide YY (human) 0.05 nM; 120 min at room temperature; read-out: hNPY1R binding Ki;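 note: bound radioligand separated by filtration over GF/C filter plates and counted, Ki obtained by non-linear regression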
Sequence (P25929 whole entry): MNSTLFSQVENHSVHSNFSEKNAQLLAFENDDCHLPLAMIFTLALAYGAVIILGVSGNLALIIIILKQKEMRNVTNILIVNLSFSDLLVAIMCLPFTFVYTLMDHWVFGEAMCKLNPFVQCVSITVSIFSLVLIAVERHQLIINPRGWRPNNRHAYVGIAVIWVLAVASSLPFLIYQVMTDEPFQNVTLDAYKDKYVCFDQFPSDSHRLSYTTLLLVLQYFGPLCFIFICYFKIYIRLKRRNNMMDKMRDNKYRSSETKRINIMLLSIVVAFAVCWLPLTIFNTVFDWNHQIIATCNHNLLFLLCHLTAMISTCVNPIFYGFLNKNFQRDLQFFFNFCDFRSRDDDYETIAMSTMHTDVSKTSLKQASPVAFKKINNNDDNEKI

Structure (SMILES) | Ki
CCC(=O)NCCNC(=O)/N=C(/N)NCCC[C@@H](NC(=O)[C@H](c1ccc(OCCCN2CCN(C3CCN(C(=O)CCCCCNC(=O)CN4CCN(CC(=O)O)CCN(CC(=O)O)CCN(CC(=O)O)CC4)CC3)CC2)cc1)N1Cc2ccccc2C1)C(=O)NCc1c(F)cc(O)cc1F [compound 35, 2,2′,2″-(10-(2-((6-(4-(4-(3-(4-((1S,4R,Z)-9-amino-4-((2,6-difluoro-4-hydroxybenzyl)carbamoyl)-1-(isoindolin-2-yl)-2,11,16-trioxo-3,8,10,12,15-pentaazaoctadec-9-en-1-yl)phenoxy)propyl)piperazin-1-yl)piperidin-1-yl)-6-oxohexyl)amino)-2-oxoethyl)-1,4,7,10-tetraazacyclododecane-1,4,7-triyl)triacetic acid] | < 10 nM
CCC(=O)NCCNC(=O)/N=C(/N)NCCC[C@@H](NC(=O)[C@H](c1ccc(OCCCNC(=O)CCCCCNC(=O)CN2CCN(CC(=O)O)CCN(CC(=O)O)CCN(CC(=O)O)CC2)cc1)N1Cc2ccccc2C1)C(=O)NCc1c(F)cc(O)cc1F [compound 36, 2,2′,2″-(10-(2-((6-((3-(4-((1S,4R,Z)-9-amino-4-((2,6-difluoro-4-hydroxybenzyl)carbamoyl)-1-(isoindolin-2-yl)-2,11,16-trioxo-3,8,10,12,15-pentaazaoctadec-9-en-1-yl)phenoxy)propyl)amino)-6-oxohexyl)amino)-2-oxoethyl)-1,4,7,10-tetraazacyclododecane-1,4,7-triyl)triacetic acid] | < 10 nM
CCC(=O)NCCNC(=O)/N=C(/N)NCCC[C@@H](NC(=O)[C@H](c1ccc(OCCCNc2c(NCCCCCCNC(=O)CN3CCN(CC(=O)O)CCN(CC(=O)O)CCN(CC(=O)O)CC3)c(=O)c2=O)cc1)N1Cc2ccccc2C1)C(=O)NCc1c(F)cc(O)cc1F [compound 37, 2,2′,2″-(10-(2-((6-((2-((3-(4-((1S,4R,Z)-9-amino-4-((2,6-difluoro-4-hydroxybenzyl)carbamoyl)-1-(isoindolin-2-yl)-2,11,16-trioxo-3,8,10,12,15-pentaazaoctadec-9-en-1-yl)phenoxy)propyl)amino)-3,4-dioxocyclobut-1-en-1-yl)amino)hexyl)amino)-2-oxoethyl)-1,4,7,10-tetraazacyclododecane-1,4,7-triyl)triacetic acid] | < 10 nM
CCC(=O)NCCNC(=O)/N=C(/N)NCCC[C@@H](NC(=O)[C@H](c1ccc(OCCCNC(=O)C[C@H]2NC(=O)[C@@H](CCCNC(=O)CN3CCN(CC(=O)O)CCN(CC(=O)O)CCN(CC(=O)O)CC3)NC2=O)cc1)N1Cc2ccccc2C1)C(=O)NCc1c(F)cc(O)cc1F [compound 38, 2,2′,2″-(10-(2-((3-((2R,5R)-5-(2-((3-(4-((1S,4R,Z)-9-amino-4-((2,6-difluoro-4-hydroxybenzyl)carbamoyl)-1-(isoindolin-2-yl)-2,11,16-trioxo-3,8,10,12,15-pentaazaoctadec-9-en-1-yl)phenoxy)propyl)amino)-2-oxoethyl)-3,6-dioxopiperazin-2-yl)propyl)amino)-2-oxoethyl)-1,4,7,10-tetraazacyclododecane-1,4,7-triyl)triacetic acid] | < 10 nM
CCC(=O)NCCNC(=O)/N=C(/N)NCCC[C@@H](NC(=O)[C@H](c1ccc(OCCCN2CCN(C(=O)CCCCCNC(=O)CN3CCN(CC(=O)O)CCN(CC(=O)O)CCN(CC(=O)O)CC3)CC2)cc1)N1Cc2ccccc2C1)C(=O)NCc1c(F)cc(O)cc1F [compound 39, 2,2′,2″-(10-(2-((6-(4-(3-(4-((1S,4R,Z)-9-amino-4-((2,6-difluoro-4-hydroxybenzyl)carbamoyl)-1-(isoindolin-2-yl)-2,11,16-trioxo-3,8,10,12,15-pentaazaoctadec-9-en-1-yl)phenoxy)propyl)piperazin-1-yl)-6-oxohexyl)amino)-2-oxoethyl)-1,4,7,10-tetraazacyclododecane-1,4,7-triyl)triacetic acid] | < 10 nM
CCC(=O)NCCNC(=O)/N=C(/N)NCCC[C@@H](NC(=O)[C@H](c1ccccc1)N1Cc2cccc(NCCCNC(=O)C[C@H]3NC(=O)[C@@H](CCCNC(=O)CN4CCN(CC(=O)O)CCN(CC(=O)O)CCN(CC(=O)O)CC4)NC3=O)c2C1)C(=O)NCc1c(F)cc(O)cc1F [compound 40, 2,2′,2″-(10-(2-((3-((2R,5R)-5-(2-((3-((2-((1S,4R,Z)-9-amino-4-((2,6-difluoro-4-hydroxybenzyl)carbamoyl)-2,11,16-trioxo-1-phenyl-3,8,10,12,15-pentaazaoctadec-9-en-1-yl)isoindolin-4-yl)amino)propyl)amino)-2-oxoethyl)-3,6-dioxopiperazin-2-yl)propyl)amino)-2-oxoethyl)-1,4,7,10-tetraazacyclododecane-1,4,7-triyl)triacetic acid] | < 10 nM
CCC(=O)NCCNC(=O)/N=C(/N)NCCC[C@@H](NC(=O)[C@H](c1ccccc1)N1Cc2cccc(NCCCNC(=O)C[C@H](O)C[C@H](O)CCNC(=O)CN3CCN(CC(=O)O)CCN(CC(=O)O)CCN(CC(=O)O)CC3)c2C1)C(=O)NCc1c(F)cc(O)cc1F [compound 41, 2,2′,2″-(10-(2-(((3R,5R)-7-((3-((2-((1S,4R,Z)-9-amino-4-((2,6-difluoro-4-hydroxybenzyl)carbamoyl)-2,11,16-trioxo-1-phenyl-3,8,10,12,15-pentaazaoctadec-9-en-1-yl)isoindolin-4-yl)amino)propyl)amino)-3,5-dihydroxy-7-oxoheptyl)amino)-2-oxoethyl)-1,4,7,10-tetraazacyclododecane-1,4,7-triyl)triacetic acid] | < 10 nM
CCC(=O)NCCNC(=O)/N=C(/N)NCCC[C@@H](NC(=O)[C@H](c1ccccc1)N1Cc2cccc(NCCCNC(=O)CCC(=O)NCCNC(=O)CN3CCN(CC(=O)O)CCN(CC(=O)O)CCN(CC(=O)O)CC3)c2C1)C(=O)NCc1c(F)cc(O)cc1F [compound 42, 2,2′,2″-(10-(2-((2-(4-((3-((2-((1S,4R,Z)-9-amino-4-((2,6-difluoro-4-hydroxybenzyl)carbamoyl)-2,11,16-trioxo-1-phenyl-3,8,10,12,15-pentaazaoctadec-9-en-1-yl)isoindolin-4-yl)amino)propyl)amino)-4-oxobutanamido)ethyl)amino)-2-oxoethyl)-1,4,7,10-tetraazacyclododecane-1,4,7-triyl)triacetic acid] | < 10 nM
CCC(=O)NCCNC(=O)/N=C(/N)NCCC[C@@H](NC(=O)[C@H](c1ccc(OCCCNC(=O)CCC(=O)NCCOCCNC(=O)CN2CCN(CC(=O)O)CCN(CC(=O)O)CCN(CC(=O)O)CC2)cc1)N1Cc2ccccc2C1)C(=O)NCc1c(F)cc(O)cc1F [compound 43, 2,2′,2″-(10-(17-(4-((1S,4R,Z)-9-amino-4-((2,6-difluoro-4-hydroxybenzyl)carbamoyl)-1-(isoindolin-2-yl)-2,11,16-trioxo-3,8,10,12,15-pentaazaoctadec-9-en-1-yl)phenoxy)-2,10,13-trioxo-6-oxa-3,9,14-triazaheptadecyl)-1,4,7,10-tetraazacyclododecane-1,4,7-triyl)triacetic acid] | < 10 nM
CCC(=O)NCCNC(=O)/N=C(/N)NCCC[C@@H](NC(=O)[C@H](c1ccc(OCCCNC(=O)CONC(=O)CCNC(=O)CN2CCN(CC(=O)O)CCN(CC(=O)O)CCN(CC(=O)O)CC2)cc1)N1Cc2ccccc2C1)C(=O)NCc1c(F)cc(O)cc1F [compound 44, 2,2′,2″-(10-(14-(4-((1S,4R,Z)-9-amino-4-((2,6-difluoro-4-hydroxybenzyl)carbamoyl)-1-(isoindolin-2-yl)-2,11,16-trioxo-3,8,10,12,15-pentaazaoctadec-9-en-1-yl)phenoxy)-2,6,10-trioxo-8-oxa-3,7,11-triazatetradecyl)-1,4,7,10-tetraazacyclododecane-1,4,7-triyl)triacetic acid] | < 10 nM
CCC(=O)NCCNC(=O)/N=C(/N)NCCC[C@@H](NC(=O)[C@H](c1ccc(OCCCNC(=O)NCCONC(=O)CN2CCN(CC(=O)O)CCN(CC(=O)O)CCN(CC(=O)O)CC2)cc1)N1Cc2ccccc2C1)C(=O)NCc1c(F)cc(O)cc1F [compound 45, 2,2′,2″-(10-(12-(4-((1S,4R,Z)-9-amino-4-((2,6-difluoro-4-hydroxybenzyl)carbamoyl)-1-(isoindolin-2-yl)-2,11,16-trioxo-3,8,10,12,15-pentaazaoctadec-9-en-1-yl)phenoxy)-2,8-dioxo-4-oxa-3,7,9-triazadodecyl)-1,4,7,10-tetraazacyclododecane-1,4,7-triyl)triacetic acid] | < 10 nM
CCC(=O)NCCNC(=O)/N=C(/N)NCCC[C@@H](NC(=O)[C@H](c1ccc(OCCCNC(=O)CN(C)C(=O)CN(C)C(=O)CN(C)C(=O)CN2CCN(CC(=O)O)CCN(CC(=O)O)CCN(CC(=O)O)CC2)cc1)N1Cc2ccccc2C1)C(=O)NCc1c(F)cc(O)cc1F [compound 46, 2,2′,2″-(10-(15-(4-((1S,4R,Z)-9-amino-4-((2,6-difluoro-4-hydroxybenzyl)carbamoyl)-1-(isoindolin-2-yl)-2,11,16-trioxo-3,8,10,12,15-pentaazaoctadec-9-en-1-yl)phenoxy)-3,6,9-trimethyl-2,5,8,11-tetraoxo-3,6,9,12-tetraazapentadecyl)-1,4,7,10-tetraazacyclododecane-1,4,7-triyl)triacetic acid] ({DOTA}-[Sar][Sar][Sar][X1][dArg(Nω-CONH(CH2)2NHCOEt)]-{NH(2,6-F2-4-OH-benzyl)}) | < 10 nM
CCC(=O)NCCNC(=O)/N=C(/N)NCCC[C@@H](NC(=O)[C@H](c1ccc(OCCCNC(=O)CCNC(=O)CN2CCN(CC(=O)O)CCN(CC(=O)O)CCN(CC(=O)O)CC2)cc1)N1Cc2ccccc2C1)C(=O)NCc1c(F)cc(O)cc1F [compound 47, 2,2′,2″-(10-(2-((3-((3-(4-((1S,4R,Z)-9-amino-4-((2,6-difluoro-4-hydroxybenzyl)carbamoyl)-1-(isoindolin-2-yl)-2,11,16-trioxo-3,8,10,12,15-pentaazaoctadec-9-en-1-yl)phenoxy)propyl)amino)-3-oxopropyl)amino)-2-oxoethyl)-1,4,7,10-tetraazacyclododecane-1,4,7-triyl)triacetic acid] | < 10 nM
